Experimental data taken from patent US20100160301A1, “MICROANGIOPATHY TREATMENT AND PREVENTION” (BAYER HEALTHCARE AG, priority 2005, published 2010).

Tests used:
[1] = test system: thrombus formation in an arteriovenous shunt; experiment: Arteriovenous shunt model (rat), antithrombotic action; assay type: in vivo; settings: oral dosage, read-out: ED50 [mg/kg] p.o.
Experimental: Fasting male rats (strain: HSD CPB:WU) having a weight of 200-250 g are anesthetized using a Rompun/Ketavet solution (12 mg/kg/50 mg/kg). Thrombus formation is induced in an arteriovenous shunt following the method described by Christopher N. Berry et al., Br. J. Pharmacol. (1994), 113, 1209-1214. For this, the left jugular vein and the right carotid artery are exposed. An extracorporeal shunt is arranged between the two vessels by means of a 10 cm long polyethylene tube (PE 60). This polyethylene tube was linked in the center to a further 3 cm long polyethylene tube (PE 160), which contained a nylon thread which was roughened and linked to a loop for the production of a thrombogenic surface. The extracorporeal circulation is maintained for 15 minutes. The shunt is then removed and the nylon thread with the thrombus is immediately weighed. The unloaded weight of the nylon thread had been determined before the start of the experiment. Before starting the extracorporeal circulation, test substances are administered to conscious animals either intravenously via the caudal vein or orally by means of stomach tube.

melting point [°C] | Compound | ED50 [1] [mg/kg]
 | O=C(NC[C@H]1CN(c2ccc(N3CCOCC3=O)cc2)C(=O)O1)c1ccc(Cl)s1 [Example 44, 5-Chloro-N-({(5S)-2-oxo-3-[4-(3-oxo-4-morpholinyl)phenyl]-1,3-oxazolidin-5-yl}methyl)-2-thiophenecarboxamide] | 3
228 to 230 | O=C(NC[C@H]1CN(c2ccc(N3CCCOC3=O)cc2)C(=O)O1)c1ccc(Cl)s1 [Example 255] | 
